Measured values: patent US11730819B2, “Peptide derivatives having novel linkage structures” (priority 2016, dated 2023)
pKd, pKi: −log10 of the molar value. Where two headings read alike, the source gives them in different places. Numbered stars: 1 amine (or outer) side, 2 acyl side, 3 side chain; on linkers, the order of the positions; unused ones are H or OH. Bridge positions count the residues as written; N and C are the ends. Square brackets hold non-standard residues; d marks the D form. Peptide text beside a SMILES is read from it. 1Nal = N[C@@H](Cc1cccc2ccccc12)C(=O)O; TBMB = c1c(C[*:1])cc(C[*:3])cc1C[*:2]; Tle = CC(C)(C)[C@H](N)C(=O)O; βAla = NCCC(=O)O; Sar = CNCC(=O)O

Target: T1, MT1-MMP hemopexin domain (Homo sapiens, UniProt P50281)
T1 construct: residues Cys319-Gly511 from the human gene; His6 (N); made in house; host or cells: HEK293 cells (transient, pEXPR-IBA42 vector)
Experiment: Fluorescence polarisation competition binding assay
Settings: for pKi: human MT1-MMP
Source text: The MT1-MMP hemopexin-like repeats (also known as the MT1-MMP hemopexin domain), residues Cys319-Gly511 from the human gene, were transiently expressed in HEK293 cells as secreted N-terminally His6-tagged soluble protein, using the pEXPR-IBA42 (IBA) expression vector. Following expression, the protein was purified by Nickel-NTA affinity chromatography followed by gel filtration, and purity was checked by SDS-PAGE. Batch to batch variability was also monitored by fluorescence thermal shift experiments in the presence/absence of a hemopexin domain binding bicycle.
Binding affinity was measured using competition assays using Fluorescence Polarisation (anisotropy).
Fluoresceination may be performed on the N-terminal amino group of the peptide, which is separated from the bicycle core sequence by a sarcosine spacer (usually Sar5). This can be done during Fmoc solid phase synthesis or post-synthetically (after cyclisation with TBMB and purification) if the N-terminal amino group is unique to the peptide. Fluoresceination can also be performed on the C-terminus, usually on a Lysine introduced as the first C-terminal residue, which is then separated from the bicycle core sequence by a sarcosine spacer (usually Sar6). Thus, N-terminal tracers can have a molecular format described as Fluo-Gly-Sar5-A(BicycleCoreSequence), and (BicycleCoreSequence)-A-Sar6-K(Fluo) for a C-terminally fluoresceinated construct. Fluorescent tracers used in the Examples are A-(17-69)-A-Sar6-K(Fluo), A-(17-69-07)-A-Sar6-K(Fluo), and A-(17-69-12)-A-Sar6-K(Fluo).
Here, a pre-formed complex of PEX with the fluorescent PEX-binding tracer is titrated with free, non-fluoresceinated bicyclic peptide. Since all 17-69-based peptides are expected to bind at the same site, the titrant will displace the fluorescent tracer from PEX. Dissociation of the complex can be measured quantitatively, and the Kd of the competitor (titrant) to the target protein determined. The advantage of the competition method is that the affinities of non-fluoresceinated bicyclic peptides can be determined accurately and rapidly.
Subsequently, the non-fluorescent competitor bicyclic peptide (usually just the bicycle core sequence) is titrated, such that it displaces the fluorescent tracer from the target protein. The displacement of the tracer is measured and associated with a drop in fluorescence polarisation. The drop in fluorescence polarisation is proportional to the fraction of target protein bound with the non-fluorescent titrant, and thus is a measure of the affinity of titrant to target protein.
The raw data is fit to the analytical solution of the cubic equation that describes the equilibria between fluorescent tracer, titrant, and binding protein. The fit requires the value of the affinity of fluorescent tracer to the target protein, which can be determined separately by direct binding FP experiments (see previous section).

[1] = bicycle peptides, read-out: Binding Affinity Ki (h)

| Compound | pKd | pKi [1] | other results |
| --- | --- | --- | --- |
| C[C@H](NC(=O)CN(C)C(=O)CN(C)C(=O)CN(C)C(=O)CN(C)C(=O)CN(C)C(=O)CN(C)C(=O)CN(C)C(=O)CN(C)C(=O)CN(C)C(=O)CN(C)C(=O)CCN)C(=O)N[C@H]1CSCc2cc3cc(c2)CSC[C@H](NC(=O)[C@@H](C)NC(=O)[C@H](Cc2cccc4ccccc24)NC(=O)[C@H](CCC(=O)O)NC(=O)[C@H](CC(N)=O)NC(=O)[C@@H](C)NC1=O)C(=O)N[C@@H](CCC(=O)O)C(=O)N[C@@H](CC(=O)O)C(=O)N[C@@H](Cc1ccccc1)C(=O)N[C@@H](Cc1ccc(O)cc1)C(=O)N[C@@H](CC(=O)O)C(=O)N[C@@H](C(C)(C)C)C(=O)N[C@H](C(N)=O)CSC3 [17-69-07-N241, H-(β-Ala)-Sar10-Ala-Cys-(D-Ala)-Asn-Glu-(1Nal)-(D-Ala)-Cys-Glu-Asp-Phe-Tyr-Asp-(tBuGly)-Cys-NH2, reference compound] (H-[βAla][Sar][Sar][Sar][Sar][Sar][Sar][Sar][Sar][Sar][Sar]AC[dA]NE[1Nal][dA]CEDFYD[Tle]C-NH2; linker 13-19-26 via TBMB) | 9.64 | – | – |
| CC(=O)N[C@@H](C)C(=O)N[C@H]1CNCc2cc3cc(c2)CSC[C@H](NC(=O)[C@@H](C)NC(=O)[C@H](Cc2cccc4ccccc24)NC(=O)[C@H](CCC(=O)O)NC(=O)[C@H](CC(N)=O)NC(=O)[C@@H](C)NC1=O)C(=O)N[C@@H](CCC(=O)O)C(=O)N[C@@H](CC(=O)O)C(=O)N[C@@H](Cc1ccccc1)C(=O)N[C@@H](Cc1ccc(O)cc1)C(=O)N[C@@H](CC(=O)O)C(=O)N[C@@H](C(C)(C)C)C(=O)N[C@H](C(N)=O)CNC3 [17-69-07-N385, Ac-A(Dap)(D-Ala)NE(1Nal)(D-Ala)CEDFYD(tBuGly)(Dap)] | 9.35 | – | – |
| CC(=O)N[C@@H](C)C(=O)N[C@H]1CN(C)Cc2cc3cc(c2)CN(C)C[C@@H](C(N)=O)NC(=O)[C@H](C(C)(C)C)NC(=O)[C@H](CC(=O)O)NC(=O)[C@H](Cc2ccc(O)cc2)NC(=O)[C@H](Cc2ccccc2)NC(=O)[C@H](CC(=O)O)NC(=O)[C@H](CCC(=O)O)NC(=O)[C@H](CSC3)NC(=O)[C@@H](C)NC(=O)[C@H](Cc2cccc3ccccc23)NC(=O)[C@H](CCC(=O)O)NC(=O)[C@H](CC(N)=O)NC(=O)[C@@H](C)NC1=O [17-69-07-N426, Ac-A(Dap(Me))(D-Ala)NE(1Nal)(D-Ala)CEDFYD(tBuGly)(Dap(Me))] | – | – | pKd (competition FP, bicycle peptides, read-out: measured affinity (Kd) to MT1-MMP): 9.44 |
| CC(=O)N[C@@H](C)C(=O)N[C@H]1CNCc2cc3cc(c2)CSC[C@H](NC(=O)[C@@H](C)NC(=O)[C@H](Cc2cccc4ccccc24)NC(=O)[C@H](CCC(=O)O)NC(=O)[C@H](CC(N)=O)NC(=O)[C@@H](C)NC1=O)C(=O)N[C@@H](CCC(=O)O)C(=O)N[C@@H](CC(=O)O)C(=O)N[C@@H](Cc1ccccc1)C(=O)N[C@@H](Cc1ccccc1)C(=O)N[C@@H](CC(=O)O)C(=O)N[C@@H](C(C)(C)C)C(=O)N[C@H](C(N)=O)CNC3 [17-69-07-N428, Ac-A(Dap)(D-Ala)NE(1Nal)(D-Ala)CEDFF9D(tBuGly)(Dap)] | 8.46 | – | – |
| C#CCCC(=O)NCCC(=O)N(C)CC(=O)N(C)CC(=O)N(C)CC(=O)N(C)CC(=O)N(C)CC(=O)N(C)CC(=O)N(C)CC(=O)N(C)CC(=O)N(C)CC(=O)N(C)CC(=O)N[C@@H](C)C(=O)N[C@H]1CNCc2cc3cc(c2)CSC[C@H](NC(=O)[C@@H](C)NC(=O)[C@H](Cc2cccc4ccccc24)NC(=O)[C@H](CCC(=O)O)NC(=O)[C@H](CC(N)=O)NC(=O)[C@@H](C)NC1=O)C(=O)N[C@@H](CCC(=O)O)C(=O)N[C@@H](CC(=O)O)C(=O)N[C@@H](Cc1ccccc1)C(=O)N[C@@H](Cc1ccc(O)cc1)C(=O)N[C@@H](CC(=O)O)C(=O)N[C@@H](C(C)(C)C)C(=O)N[C@H](C(N)=O)CNC3 [17-69-07-N434, (PYA)-(B-Ala)-Sar10-A(Dap)(D-Ala)NE(1Nal)(D-Ala)CEDFYD(tBuGly)(Dap)] | 8.82 | – | – |
| C#CCCC(=O)N[C@@H](C)C(=O)N[C@H]1CNCc2cc3cc(c2)CSC[C@H](NC(=O)[C@@H](C)NC(=O)[C@H](Cc2cccc4ccccc24)NC(=O)[C@H](CCC(=O)O)NC(=O)[C@H](CC(N)=O)NC(=O)[C@@H](C)NC1=O)C(=O)N[C@@H](CCC(=O)O)C(=O)N[C@@H](CC(=O)O)C(=O)N[C@@H](Cc1ccccc1)C(=O)N[C@@H](Cc1ccc(O)cc1)C(=O)N[C@@H](CC(=O)O)C(=O)N[C@@H](C(C)(C)C)C(=O)N[C@H](C(N)=O)CNC3 [17-69-07-N438, PYA-A(Dap)(D-Ala)NE(1Nal)(D-Ala)CEDFYD(tBuGly)(Dap)] | – | – | pKi (Binding Affinity Ki (h), bicycle peptides): 8.51 |
| C#CCCC(=O)N[C@@H](C)C(=O)N[C@H]1CN(C)Cc2cc3cc(c2)CN(C)C[C@@H](C(N)=O)NC(=O)[C@H](C(C)(C)C)NC(=O)[C@H](CC(=O)O)NC(=O)[C@H](Cc2ccc(O)cc2)NC(=O)[C@H](Cc2ccccc2)NC(=O)[C@H](CC(=O)O)NC(=O)[C@H](CCC(=O)O)NC(=O)[C@H](CSC3)NC(=O)[C@@H](C)NC(=O)[C@H](Cc2cccc3ccccc23)NC(=O)[C@H](CCC(=O)O)NC(=O)[C@H](CC(N)=O)NC(=O)[C@@H](C)NC1=O [17-69-07-N443, PYA-A(Dap(Me))(D-Ala)NE(1Nal)(D-Ala)CEDFYD(tBuGly)(Dap(Me))] | – | 8.49 | – |
| C[C@H](NC(=O)CN(C)C(=O)CN(C)C(=O)CN(C)C(=O)CN(C)C(=O)CN(C)C(=O)CN(C)C(=O)CN(C)C(=O)CN(C)C(=O)CN(C)C(=O)CN(C)C(=O)CCN)C(=O)N[C@H]1CN(C)Cc2cc3cc(c2)CN(C)C[C@@H](C(N)=O)NC(=O)[C@H](C(C)(C)C)NC(=O)[C@H](CC(=O)O)NC(=O)[C@H](Cc2ccc(O)cc2)NC(=O)[C@H](Cc2ccccc2)NC(=O)[C@H](CC(=O)O)NC(=O)[C@H](CCC(=O)O)NC(=O)[C@H](CSC3)NC(=O)[C@@H](C)NC(=O)[C@H](Cc2cccc3ccccc23)NC(=O)[C@H](CCC(=O)O)NC(=O)[C@H](CC(N)=O)NC(=O)[C@@H](C)NC1=O [17-69-07-N451, (B-Ala)-Sar10-A(Dap(Me))(D-Ala)NE(1Nal)(D-Ala)CEDFYD(tBuGly)(Dap(Me))] | – | 8.43 | – |
| C[C@H](N)C(=O)N[C@H]1CN(C)Cc2cc3cc(c2)CN(C)C[C@@H](C(N)=O)NC(=O)[C@H](C(C)(C)C)NC(=O)[C@H](CC(=O)O)NC(=O)[C@H](Cc2ccc(O)cc2)NC(=O)[C@H](Cc2ccccc2)NC(=O)[C@H](CC(=O)O)NC(=O)[C@H](CCC(=O)O)NC(=O)[C@H](CSC3)NC(=O)[C@@H](C)NC(=O)[C@H](Cc2cccc3ccccc23)NC(=O)[C@H](CCC(=O)O)NC(=O)[C@H](CC(N)=O)NC(=O)[C@@H](C)NC1=O [17-69-07-N452, A(Dap(Me))(D-Ala)NE(1Nal)(D-Ala)CEDFYD(tBuGly)(Dap(Me))] | – | 8.40 | – |
| CC(=O)NCCC(=O)N(C)CC(=O)N(C)CC(=O)N(C)CC(=O)N(C)CC(=O)N(C)CC(=O)N(C)CC(=O)N(C)CC(=O)N(C)CC(=O)N(C)CC(=O)N(C)CC(=O)N[C@@H](C)C(=O)N[C@H]1CN(C)Cc2cc3cc(c2)CN(C)C[C@@H](C(N)=O)NC(=O)[C@H](C(C)(C)C)NC(=O)[C@H](CC(=O)O)NC(=O)[C@H](Cc2ccc(O)cc2)NC(=O)[C@H](Cc2ccccc2)NC(=O)[C@H](CC(=O)O)NC(=O)[C@H](CCC(=O)O)NC(=O)[C@H](CSC3)NC(=O)[C@@H](C)NC(=O)[C@H](Cc2cccc3ccccc23)NC(=O)[C@H](CCC(=O)O)NC(=O)[C@H](CC(N)=O)NC(=O)[C@@H](C)NC1=O [17-69-07-N454, Ac-(B-Ala)-Sar10-A(Dap(Me))(D-Ala)NE(1Nal)(D-Ala)CEDFYD(tBuGly)(Dap(Me))] | – | 8.52 | – |
